Each block holds one molecule with its values, some of them ahead of it.
How the values were obtained:
CUP1 promoter = assay: CuSO4 induction experiment, reporter assay using mCLuc or β-galactosidase; type: cell-based, Saccharomyces cerevisiae; conditions: 0.025 mM CuSO4-containing medium, pmCLuRA-CUP1 (8 hours) / pGALuRA-CUP1 (16 hours); FIGS. 13A, 13B
Experimental: It has been known that the expression of the CUP1 gene (systematic gene name: YHR053C) of Saccharomyces cerevisiae is induced in the presence of copper ions (Gene, 48, 13-22 (1986)). That is, a CUP1 promoter is a copper-ion-inducible promoter. Thus, with the use of pmCLuRA-CUP1, it was examined whether or not such induction would be observed in the case of mCLuc. In addition, a similar experiment was carried out using β-galactosidase. The results of both experiments were compared and examined.
Three clones of a transformant comprising pmCLuRA-CUP1 and those of a transformant comprising pGALuRA-CUP1 described above were separately introduced into a synthetic liquid medium (SD+KHLadeW 200 mM KPi). Each resultant was shake-cultured overnight at 30° C. until the stationary phase.
Subsequently, 5 μl of the culture solution containing a transformant comprising pmCLuRA-CUP1 was introduced into each well of a 96-deep well plate, with 1 ml of a 0.025 mM CuSO4-containing synthetic liquid medium (SD+KHLadeW 200 mM KPi) or a CuSO4-free synthetic liquid medium (SD+KHLadeW 200 mM KPi) having been added to such well. This was followed by shake culture at 30° C. 8 hours after the initiation of culture, a portion of the culture solution was recovered, followed by measurement of absorbance at 600 nm (OD600) and relative light units (RLU) from a luminometer in accordance with the method in Example 1. […]

CLuc [1] = assay: Influences of various chemical substances on CLuc activity measurement; type: biochemical, Cypridina noctiluca; conditions: highly concentrated chemical substance added to culture supernatant; FIG. 6
Text: For the CLuc activity measurement, an LB960 luminometer (Berthold) was used.
The measurement values were divided by absorbance of the culture solution at 600 nm such that CLuc activity subjected to a correction of the number of yeast cell bodies was obtained.
Influences of chemical substances on CLuc activity measurement were examined, as such substances coexist with yeast culture supernatants upon CLuc activity measurement following the secretory expression of CLuc in yeasts.
Chemical substances (2 μl) that had been adjusted to have different concentrations were separately added to 20 μl of the prepared culture supernatant, followed by CLuc activity measurement.
The relative residual activity of each sample is represented by the mean value and the standard deviation on the condition that the CLuc activity of a sample to which a chemical substance was not added is determined to be 100%.

CLuc [2] = conditions: final concentration in reaction solution, 100 mM Tris-HCl pH 7.4; FIG. 3
Experimental: In addition, a stock solution of the culture supernatant of the transformant comprising pCLuRA-TDH3 was separately serial-diluted 10-fold, 100-fold, 1000-fold, and 10000-fold with an SD medium containing a 100 mM phosphate buffer solution so that the resulting diluted culture supernatants were used. Specifically, the concentration of the culture supernatant stock solution was determined to be 100% such that 10-fold, 100-fold, 1000-fold, and 10000-fold diluted culture supernatants had supernatant concentrations of 10%, 1%, 0.1%, and 0.01%, respectively.
Then, CLuc activity measurement was carried out as with the case of Example 1.
In FIG. 3, plots indicate results obtained by using culture supernatants that had been serial-diluted with a culture supernatant stock solution (100%) with reaction solutions with different final concentrations of luciferin.

GAL1 promoter = assay: Galactose induction experiment, reporter assay using mCLuc or β-galactosidase; type: cell-based, Saccharomyces cerevisiae; conditions: 2% galactose-containing medium without glucose, 32 hours, pmCLuRA-GAL1 / pGALuRA-GAL1; FIGS. 14A, 14B
Experimental: It has been known that the expression of GAL1 gene (systematic gene name: YBR020W) of Saccharomyces cerevisiae is induced in the absence of glucose and the presence of galactose (West, R. W. J. et al., Mol. Cell. Biol., 4: 2467-2478 (1984)). That is, a GAL1 promoter is a galactose-inducible promoter. Thus, with the use of pmCLuRA-GAL1, it was examined whether or not such induction would be observed in the case of mCLuc. In addition, a similar experiment was carried out using β-galactosidase. The results of both experiments were compared and examined.
Three clones of a transformant comprising pmCLuRA-GAL1 and those of a transformant comprising pGALuRA-GAL1 described above were separately introduced into a synthetic liquid medium (SD+KHLadeW 200 mM KPi). […]
Subsequently, 20 μl of the culture solution containing a transformant comprising pmCLuRA-GAL1 was introduced into each well of a 96-deep well plate, with 1 ml of a 2% galactose-containing synthetic liquid medium (SC+KHLadeW (prepared by removing glucose from SD+KHLWade in Example 1) 200 mM KPi) or a synthetic liquid medium (SD+KHLadeW 200 mM KPi) having been added to such well. […] 32 hours after the initiation of culture, a portion of the culture solution was recovered, followed by measurement of absorbance at 600 nm (OD600) and relative light units (RLU) from a luminometer in accordance with the method in Example 1. […]

[3] = Stability of CLuc in yeast culture supernatants; type: physicochemical
Experimental: The prepared culture supernatants were incubated at 0° C., 25° C., 40° C., and 50° C. for 0, 15, 30, and 60 minutes, respectively, followed by CLuc activity measurement.
In FIG. 4, each plot indicates the mean value and the standard deviation of relative residual activities of each sample subjected to incubation at a given temperature for a given period of time. The vertical axis denotes the relative residual activity based on the CLuc activity (100%) of a sample that had not been incubated.

[4] = Stability of CLuc activity after sampling of culture solutions; type: physicochemical; conditions: culture solution incubated at 25° C. for 30 minutes; FIG. 8
Experimental: Thus, in order to examine the stability of CLuc activity after sampling of culture solutions, a transformant comprising pCLuRA-TDH3 prepared in Example 1 was cultured as with the case of Example 1. Then, the yeast culture solution was partially collected (sampling), followed by incubation at 25° C. for 0, 10, 20, and 30 minutes. After incubation, the CLuc activity of each culture solution sample was measured as with the case of Example 1.
In FIG. 8, CLuc activity is shown as the relative residual activity based on the CLuc activity of a sample that was measured immediately after sampling (100%).

Molecule: O=S(=O)([O-])[O-].[Cu+2] [CuSO4]
transcription induction of the CUP1 promoter (CUP1 promoter): transcription induction | inhibition of the enzyme activity of CLuc (relative residual activity) (CLuc [1]): inhibited

Molecule: CC[C@H](C)c1nc2c(CCCNC(=N)N)[nH]c(-c3c[nH]c4ccccc34)cn-2c1=O [Cypridina luciferin]
final luciferin concentration at which CLuc activity reaches a saturation point (CLuc [2]): ≥ 1 µM

inhibition of the enzyme activity of CLuc (relative residual activity) (CLuc [1]): inhibited
Molecule: CCO [ethanol]

Molecule: O=C[C@H](O)[C@@H](O)[C@@H](O)[C@H](O)CO [galactose]
transcription induction of the GAL1 promoter (GAL1 promoter): transcription induction

B1: CLuc: Cypridina noctiluca-secretory luciferase (SEQ ID NO: 2); secreted from yeast as αCLuc with α-factor signal peptide (protein, listed as Cypridina noctiluca)
chain: MKTLILAVALVYCATVHCQDCPYEPDPPNTVPTSCEAKEGECIDSSCGTCTRDILSDGLCENKPGKTCCRMCQYVIECRVEAAGWFRTFYGKRFQFQEPGTYVLGQGTKGGDWKVSITLENLDGTKGAVLTKTRLEVAGDIIDIAQATENPITVNGGADPIIANPYTIGEVTIAVVEMPGFNITVIEFFKLIVIDILGGRSVRIAPDTANKGMISGLCGDLKMMEDTDFTSDPEQLAIQPKINQEFDGCPLYGNPDDVAYCKGLLEPYKDSCRNPINFYYYTISCAFARCMGGDERASHVLLDYRETCAAPETRGTCVLSGHTFYDTFDKARYQFQGPCKEILMAADCFWNTWDVKVSHRNVDSYTEVEKVRIRKQSTVVELIVDGKQILVGGEAVSVPYSSQNTSIYWQDGDILTTAILPEALVVKFNFKQLLVVHIRDPFDGKTCGICGNYNQDFSDDSFDAEGACDLTPNPPGCTEEQKPEAERLCNSLFAGQSDLDQKCNVCHKPDRVERCMYEYCLRGQQGFCDHAWEFKKECYIKHGDTLEVPDECK
modifications: α-factor signal peptide
stability of CLuc as an enzyme (relative residual activity) ([3]; culture supernatant incubated at 0, 25, 40, 50° C. for 0-60 minutes, FIG. 4): highly stable | stability of CLuc at room temperature ([3]; culture supernatant, room temperature, 15 minutes after sampling): stable | change in CLuc activity after sampling (relative residual activity) [4]: almost no change

— patent US20070248967A1, “Reporter Assay Using Secrectory Luminescent Enzymes” (NATIONAL INSTITUTE OF ADVANCED INDUSTRIAL SCIENCE, priority 2005, published 2007)
